# What was measured:
# Assay type in all cases: in vivo
# [1] = system: Harlan Sprague-Dawley rats; assay: Adult respiratory distress syndrome: LPS-induced PMN count in broncho-alveolar lavage; settings: 100 μg/kg IP; LPS 5 mg/kg intratracheal; lavage at 6 hr
# Method: These experiments were performed using a modification of the methods described by Ulich et al., Am. J. Pathol. 141:61-68 (1992) and by Wheelden et al., Lab. Animals 26:29-37 (1992), each of which is incorporated herein by reference. Male Harlan Sprague-Dawley rats were anesthetized using a mixture of 70 mg/kg ketamine and 6 mg/kg rompun injected IP. A 2-3 cm incision was made in the neck of each anesthetized rat and its trachea was exposed by blunt dissection of the surrounding soft tissue. The rats were suspended on a near vertical slab and intratracheal injections were performed by inserting into the exposed trachea, at a point 1 cm posterior to the larynx, a 25 G×1/2 inch needle attached to a 1 cc syringe.
# Each rat received 0.5 ml/kg of saline or 0.5 ml/kg of 10 mg/ml (5 mg/kg) LPS endotoxin via slow intratracheal administration. Immediately following administration of the LPS endotoxin, rats were injected IP with 1 ml/kg of either saline (control) or saline containing various concentrations of EX-2 (treated). The rats were maintained in the elevated position for 1-2 min to facilitate distribution of the LPS and saline into the lung. The incisions were closed and the rats were allowed to recover. […]
# neutrophils) in the broncho-alveolar lavage fluid were counted in the EX-2-treated rats and compared with the number in the control rats.
# [2] = system: Sprague-Dawley rats; assay: Interleukin-1β-induced hyperalgesia (paw pressure); settings: 1 μg IP; 2 hr after IL-1β intra plantar
# Method: These experiments were performed using a modification of the methods described by Poole et al., Br. J. Pharmacol. 106:489-492 (1992); Follenfant et al., Br. J. Pharmacol. 98:41-43 (1989); and Randall and Sellito, Arch. Internatl. Pharmacodyn. 111:409-419 (1957), each of which is incorporated herein by reference. Adult male Sprague-Dawley rats (175-275 g) were tested for hyperalgesia by a paw pressure technique using variable pressure instrumentation (IITC Life Sciences; Woodland Hills, Calif.). Rats were acclimated to the housing environment and were handled for three days prior to beginning a training session. On the day before the hyperalgesia experiments was to begin, each rat was placed into a sock and two variable paw pressure tests were performed 15 min apart.
# Approximately 5-10% of the rats were non-responders and were eliminated from further experiments.
# Animals that responded to the paw pressure were pretreated by IP injection of various concentrations of EX-2 in a volume of 1 ml/kg (treated) or saline, alone (control). After 20 min, 100 μl of IL-1β (1U/100 μl) was administered to rats via intra plantar injection. Two hr after IL-1 administration, rats were subjected to two additional paw pressure tests and the increase in mm Hg of pressure that could be applied to the EX-2-treated rats as compared to the control rats was determined.
# [3] = system: IL-6; assay: Reduction of LPS-induced Interleukin-6 levels in mice (ELISA); settings: 300 μg/mouse; LPS-treated mice vs untreated control
# Method: Balb/c mice were grouped and treated as described in Example III, above. Blood samples were obtained from the orbital sinus at various times up to six hr and serum was collected and diluted as described above. A 100 μl aliquot was assayed for IL-6 levels using an IL-6-specific ELISA by a modification of the method of Starnes et al., J. Immunol. 145:4185-4194 (1990), which is incorporated herein by reference.
# The mean (+/-SEM) IL-6 level in six mice from each group was determined and the percent reduction in IL-6 was calculated.
# [4] = system: Balb/c mice; assay: Arachidonic acid-induced ear swelling; settings: 100 μg/mouse IP 30 min before AA; 60 min after AA
# Method: Experiments were performed using female Balb/c mice weighing 18-23 grams. Saline or 100 μg EX-2 or EX-3 was administered IP, 30 min prior to topical application of arachidonic acid (AA). A 10 μl pipet was used to apply 10 μl AA solution (100 mg/ml ethanol; Calbiochem-Novabiochem; San Diego Calif.) to the inner and outer surfaces of the right ear of each mouse. Ten μl ethanol, alone, was applied to the inner and outer surface of the left ear of each mouse.
# Ear thickness was measured with a hand-held spring loaded caliper immediately before and 60 min after AA application. Increase in ear thickness was calculated by subtracting the change observed in the control ear from the change observed in AA-treated ear. The value for each group (saline and control) is the average of the swelling observed in the individual mice in each group. The percent reduction of swelling is based on the swelling observed in the saline control group.
# [5] = system: Sprague-Dawley rats; assay: Streptozotocin-induced diabetes, plasma glucose; settings: STZ 65 mg/kg iv; EX-2 150 μg/kg every 8 hr for 72 hr
# Method: B. Induced Diabetes: Male Sprague-Dawley rats were given 65 mg/kg of streptozotocin (STZ) intravenously through the tall vein. Rats were divided into two groups. The first group was administered EX-2, 150 μg/kg every 8 hr for 72 hr and the second group was a control. Blood samples were withdrawn under ether anesthesia every 8 hr for the first 72 hr, then every 12 hr or 24 hr until the end of the observation period. Plasma samples were assayed for glucose using a glucose assay kit (Trinder, Sigma Chemical Co.). As shown in Table VI below EX-2 effect a 72% reduction in blood glucose levels.
# [6] = system: Balb/c mice; assay: Lipopolysaccharide-induced lethality (IP dosing); settings: 11 × 300 μg/mouse IP (3.3 mg total); 0.6 mg LPS
# Method: These experiments were performed based on information reported by Rivier et al., Endocrinology 125:2800-2805 (1989), which is incorporated herein by reference. Adult female Balb/c mice were provided food and water ad libitum. Mice were injected IP every four hr for 40 hr with 30 to 300 μg EX-2, EX-3 or EX-4 in 0.2 ml saline (treated group) or with 0.2 ml saline, alone (control group) (10 mice per group). Immediately following the first injection, 0.6 mg LPS endotoxin in 0.2 ml saline was administered to each mouse. Following LPS injection, EX-2 or saline was administered to the treated mice or the control mice, respectively, every 4 hr for 36 hr.
substance,measurement,setting,value
Ac-Nle-Gln-His-(D)Phe-Arg-(D)Trp-Gly-NH2 [EX-2],Reduction in LPS-induced PMN Count,[1],58%
same,Reduction in IL-1-induced Hyperalgesia (increase in tolerated paw pressure vs control),[2],125%
same,Reduction in IL-6 levels,[3],60%
same,Reduction in arachidonic acid-induced Ear Swelling,[4],72%
same,"% Reduction of induced increase in Blood Glucose (mg/dl), STZ Diabetes",[5],72%
same,Inhibition of LPS-induced Lethality (increase in survival vs control),[6],83%
